One data set has as its system Jurkat cells. In words: Cell cytotoxicity assay (Jurkat cell viability). The data set is classed as cell-based, human. The settings on record: 24 hours. The procedure: 1×10^5 Jurkat cells (immortalised human T lymphocytes) are added to the appropriate number of wells of a 96 well plate in 100 μL of media (RPMI supplemented with 10% foetal bovine serum). 1 μL of DMSO control (final concentration 1.0% v/v) or test compound (final concentration 20, 5 or 1 μg/mL) is added to the wells and incubated at 37° C., 5% CO2. After 24 hours, the plate is centrifuged at 1200 rpm for 3 minutes and the supernatant discarded. Cells are then resuspended in 150 μL (final concentration 7.5 μg/mL) of propidium iodide (PI) in PBS and incubated at 37° C., 5% CO2 for 15 minutes. After 15 minutes, cells are analysed by flow cytometry (BD accuri) using the FL3 window. The % viability is calculated as the % of cells that are PI negative in the test wells normalised to the DMSO control.

Data set [1] deals with PBMCs. In words: IFN gamma release in CD3/CD28 stimulated PBMC cells. The data set is classed as cell-based. To be noted: Homo sapiens, read-out: IC50 Values for Inhibition of Cytokine Release PBMCs IFNγ. The procedure: (§1) PBMCs from healthy subjects are separated from whole blood using a density gradient (Lymphoprep, Axis-Shield Healthcare). Cells are added to a 96 well plate pre-coated with a mixture of CD3/CD28 monoclonal antibodies (0.3 μg/mL eBioscience and 3 μg/mL BD Pharmingen respectively). Compound at the desired concentration is then added to the wells and the plate left for 3 days under normal tissue culture conditions. Supernatants are harvested and IL-2 and IFN gamma release determined by Sandwich ELISA (Duo-set, R&D System). The IC50 is determined from the dose response curve.

Data set [2] has as its target T1, Syk (Homo sapiens, UniProt P43405).
T1 construct: purchased Invitrogen
Description: Syk enzyme inhibition, FRET Z-LYTE. The format is biochemical. The procedure:
(§2) The enzyme inhibitory activities of compounds disclosed herein are determined by FRET using synthetic peptides labelled with both donor and acceptor fluorophores (Z-LYTE, Invitrogen Ltd., Paisley, UK).
(§3) The inhibitory activities of compounds of the invention against c-Src and Syk enzymes (Invitrogen), are evaluated in a similar fashion to that described hereinabove. The relevant enzyme (3000 ng/mL or 2000 ng/mL respectively, 2.5 μL) is incubated with the test compound (either 4 μg/mL, 0.4 μg/mL, 0.04 μg/mL, or 0.004 μg/mL, 2.5 μL each) for 2 hr at RT. The FRET peptides (8 μM, 2.5 μL), and appropriate ATP solutions (2.5 μL, 800 μM for c-Src, and 60 μM ATP for Syk) are then added to the enzymes/compound mixtures and incubated for 1 hr. Development reagent (protease, 5 μL) is added for 1 hr prior to detection in a fluorescence microplate reader (Varioskan® Flash, ThermoFisher Scientific).
(§4) In all cases, the site-specific protease cleaves non-phosphorylated peptide only and eliminates the FRET signal. Phosphorylation levels of each reaction are calculated using the ratio of coumarin emission (donor) over fluorescein emission (acceptor), for which high ratios indicate high phosphorylation and low ratios indicate low phosphorylation levels.

In data set [3] the test system is PBMCs. Description: LPS-induced IL-8 release in PBMC cells. The data set is classed as cell-based. To be noted: Homo sapiens, LPS-stimulated PBMCs, read-out: IC50 Values for Inhibition of Cytokine Release PBMCs IL-8. The essentials: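 Healthy-donor PBMCs isolated by density gradient were pretreated with compound for 2 h, then stimulated with 1 ng/mL LPS (E. coli 0111:B4) for 24 h at 37° C., 5% CO2. IL-8 and TNFα in supernatants measured by sandwich ELISA.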

The next data set has as its target T2, GSK3α (Homo sapiens, UniProt P49840).
T2 construct: purchased Invitrogen
Description: GSK3α enzyme inhibition (Method 2), FRET Z-LYTE. The format is biochemical. The procedure: as §2
The inhibitory activities of compounds of the invention against the GSK 3α enzyme isoform (Invitrogen), are evaluated by determining the level of activation/phosphorylation of the target peptide. The GSK3-α protein (500 ng/mL, 2.5 μL) is mixed with the test compound (2.5 μL at either 4 μg/mL, 0.4 μg/mL, 0.04 μg/mL, or 0.004 μg/mL) for 2 hr at RT. The FRET peptide (8 μM, 2.5 μL), which is a phosphorylation target for GSK3α, and ATP (40 μM, 2.5 μL) are then added to the enzyme/compound mixture and the resulting mixture incubated for 1 hr. Development reagent (protease, 5 μL) is added for 1 hr prior to detection in a fluorescence microplate reader (Varioskan® Flash, ThermoFisher Scientific).
as §4
This method follows the same steps as Method 1 above, but utilises a shorter period of mixing of the test compound (105 minutes instead of 2 hours) with the GSK3-α protein.

For data set [4], the system named is PBMCs. In words: IL-2 release in CD3/CD28 stimulated PBMC cells. The settings on record: Homo sapiens, read-out: IC50 Values for Inhibition of Cytokine Release PBMCs IL-2. The data set is classed as cell-based. The procedure: as §1
The target of data set [5] is T1, Syk. Description: KINOMEscan dissociation constant, Syk. The format is binding. The procedure: (§5) Kinase enzyme binding activities of compounds disclosed herein may be determined using a proprietary assay which measures active site-directed competition binding to an immobilized ligand (Fabian, M. A. et al., Nature Biotechnol., 2005, 23:329-336). These assays may be conducted by DiscoverX (formerly Ambit; San Diego, Calif.). The percentage inhibition produced by incubation with a test compound may be calculated relative to the non-inhibited control.

For the next data set, the target named is T3, c-Src (Homo sapiens, UniProt P12931).
T3 construct: purchased Invitrogen
Description: c-Src enzyme inhibition, FRET Z-LYTE. The format is biochemical. As to the method: as §2, §3, §4

The target of data set [6] is T4, p38 MAPKα (Homo sapiens, UniProt Q16539).
T4 construct: purchased Invitrogen
In words: KINOMEscan dissociation constant, p38 MAPKα. The data set is classed as binding. The procedure:
as §5

Another data set deals with T5, Lck (Homo sapiens, UniProt P06239).
T5 construct: purchased DiscoveRx Corporation (LeadHunter Discover Services, KINOMEscan)
In words: KINOMEscan dissociation constant, Lck. The data set is classed as binding. As to the method:
as §5

Data set [7] deals with T4, p38 MAPKα. Description: p38 MAPKα enzyme inhibition (Method 2), FRET Z-LYTE. The data set is classed as biochemical. The procedure:
as §2
The inhibitory activities of test compounds against the p38 MAPKα isoform (MAPK14: Invitrogen), are evaluated indirectly by determining the level of activation/phosphorylation of the down-stream molecule, MAPKAP-K2. The p38 MAPKα protein (80 ng/mL, 2.5 μL) is mixed with the test compound (2.5 μL of either 4 μg/mL, 0.4 μg/mL, 0.04 μg/mL or 0.004 μg/mL) for 2 hr at RT. […] The mixture is incubated for 1 hr at RT. Development reagent (protease, 5 μL) is added for 1 hr prior to detection in a fluorescence microplate reader (Varioskan® Flash, ThermoFisher Scientific).
This method follows the same steps as Method 1 above, but utilises a higher concentration of the p38 MAPKα protein (2.5 μL of 200 ng/mL protein instead of 2.5 μL of 80 ng/mL protein) for mixing with the test compound.
as §4

The subject of data set [8] is PBMCs. Description: Cell mitosis assay in PBMCs. The data set is classed as cell-based, human. The procedure:
Peripheral blood mononucleocytes (PBMCs) from healthy subjects are separated from whole blood (Quintiles, London, UK) using a density gradient (Histopaque®-1077, Sigma-Aldrich, Poole, UK). The PBMCs (3 million cells per sample) are subsequently treated with 2% PHA (phytohaemagglutinin, Sigma-Aldrich, Poole, UK) for 48 hr, followed by a 20 hr exposure to varying concentrations of test compounds. At 2 hr before collection, PBMCs are treated with demecolcine (0.1 μg/mL; Invitrogen, Paisley, UK) to arrest cells in metaphase. To observe mitotic cells, PBMCs are permeabilised and fixed by adding Intraprep (50 μL; Beckman Coulter, France), and stained with anti-phospho-histone 3 (0.26 ng/L; #9701; Cell Signalling, Danvers, Mass.) and propidium iodide (1 mg/mL; Sigma-Aldrich, Poole, UK) as previously described (Muehlbauer P. A. and Schuler M. J., Mutation Research, 2003, 537:117-130). Fluorescence is observed using an ATTUNE flow cytometer (Invitrogen, Paisley, UK), gating for lymphocytes.

The structures appear in SMILES notation.

T4 sequence (Q16539 whole entry): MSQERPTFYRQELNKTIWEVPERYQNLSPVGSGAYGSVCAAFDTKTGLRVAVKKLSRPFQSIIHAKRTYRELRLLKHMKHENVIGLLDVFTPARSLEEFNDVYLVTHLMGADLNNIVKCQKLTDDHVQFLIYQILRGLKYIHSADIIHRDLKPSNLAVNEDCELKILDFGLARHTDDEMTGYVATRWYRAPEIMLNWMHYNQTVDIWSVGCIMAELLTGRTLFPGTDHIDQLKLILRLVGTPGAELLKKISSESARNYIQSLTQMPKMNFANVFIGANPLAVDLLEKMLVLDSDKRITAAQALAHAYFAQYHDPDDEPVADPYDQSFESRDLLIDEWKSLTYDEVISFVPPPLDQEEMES
T3 sequence (P12931 whole entry): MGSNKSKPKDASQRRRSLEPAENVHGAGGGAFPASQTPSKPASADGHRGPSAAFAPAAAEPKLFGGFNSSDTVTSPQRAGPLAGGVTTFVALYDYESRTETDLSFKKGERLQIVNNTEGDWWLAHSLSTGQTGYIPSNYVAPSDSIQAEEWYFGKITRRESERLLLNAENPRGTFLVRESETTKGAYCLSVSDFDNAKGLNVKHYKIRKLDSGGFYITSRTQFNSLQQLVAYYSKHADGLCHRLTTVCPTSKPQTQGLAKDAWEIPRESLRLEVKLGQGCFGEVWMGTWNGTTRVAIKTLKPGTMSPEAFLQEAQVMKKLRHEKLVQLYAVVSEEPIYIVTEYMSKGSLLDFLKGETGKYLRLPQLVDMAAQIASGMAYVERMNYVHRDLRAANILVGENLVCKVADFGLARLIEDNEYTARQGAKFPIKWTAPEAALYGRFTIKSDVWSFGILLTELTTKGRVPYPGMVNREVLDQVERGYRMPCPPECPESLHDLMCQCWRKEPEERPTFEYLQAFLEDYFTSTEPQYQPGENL
T2 sequence (P49840 whole entry): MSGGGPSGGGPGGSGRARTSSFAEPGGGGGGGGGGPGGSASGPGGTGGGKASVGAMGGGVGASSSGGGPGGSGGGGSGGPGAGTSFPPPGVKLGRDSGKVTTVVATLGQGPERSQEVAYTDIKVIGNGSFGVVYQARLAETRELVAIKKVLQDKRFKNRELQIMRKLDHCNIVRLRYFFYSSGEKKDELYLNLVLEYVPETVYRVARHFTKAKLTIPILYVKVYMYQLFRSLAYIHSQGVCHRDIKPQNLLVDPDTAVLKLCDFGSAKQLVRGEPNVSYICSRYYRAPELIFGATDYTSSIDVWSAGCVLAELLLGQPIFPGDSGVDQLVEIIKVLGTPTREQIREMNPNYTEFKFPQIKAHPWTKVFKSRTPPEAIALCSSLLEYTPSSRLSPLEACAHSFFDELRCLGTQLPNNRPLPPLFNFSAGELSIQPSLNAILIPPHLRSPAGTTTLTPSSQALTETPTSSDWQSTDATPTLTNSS
T5 sequence (P06239 whole entry): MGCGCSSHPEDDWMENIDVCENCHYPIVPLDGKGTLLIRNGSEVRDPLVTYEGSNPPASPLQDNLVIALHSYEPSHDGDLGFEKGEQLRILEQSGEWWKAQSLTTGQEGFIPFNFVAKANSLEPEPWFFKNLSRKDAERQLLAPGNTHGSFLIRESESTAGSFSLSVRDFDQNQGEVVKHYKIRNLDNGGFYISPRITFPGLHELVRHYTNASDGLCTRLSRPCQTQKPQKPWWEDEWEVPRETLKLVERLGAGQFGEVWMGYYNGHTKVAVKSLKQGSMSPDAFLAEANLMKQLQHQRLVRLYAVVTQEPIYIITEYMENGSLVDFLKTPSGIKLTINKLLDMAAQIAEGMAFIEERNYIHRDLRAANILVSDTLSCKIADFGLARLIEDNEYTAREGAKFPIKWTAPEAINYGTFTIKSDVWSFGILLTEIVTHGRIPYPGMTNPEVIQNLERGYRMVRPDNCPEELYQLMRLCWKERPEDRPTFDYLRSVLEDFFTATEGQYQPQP

On to `COc1cc(Nc2ncc3cc(-c4cc(C(=O)Nc5cc(C(C)(C)C)cc(C(N)=O)c5OC)ccc4C)ccc3n2)cc(C(=O)NCCN2CCOCC2)c1` [Example 3, N-(5-(tert-Butyl)-3-carbamoyl-2-methoxyphenyl)-3-(2-((3-methoxy-5-((2-morpholinoethyl)-carbamoyl)phenyl)amino)quinazolin-6-yl)-4-methylbenzamide], for which the “% Viability at 1 μg/mL” value in the data set on Jurkat cells is 100.4%. Further, the “% Viability at 5 μg/mL” value with Jurkat cells was determined as 82.9%. For the same compound, the “% Viability at 20 μg/mL” value with Jurkat cells turned out to be 77.5%. Besides, the 50% inhibitory concentration (IC50) (in general, the midpoint of a concentration-inhibition curve) with PBMCs [1] is 18.4 nM; at Syk [2], 781 nM; with PBMCs [3] it was 8 nM; at GSK3α, above 13100 nM; in the data set with PBMCs [4], 16.5 nM; at c-Src it was 18 nM. This compound also registered an IC50 at p38 MAPKα [7] of 12 nM. Also, the results for the Kd at Syk [5], at p38 MAPKα [6] and at Lck were 50 nM, 3.9 nM and 6.7 nM, respectively. For the same compound, the inhibition – broadly, the change of the read-out against control, counted positive when it falls – at 5 µg/mL in the data set with PBMCs [8] (Homo sapiens, PBMC, PBMCs, 5 μg/mL) came to 66.3%. Moreover, the “impact on cell division (mitosis) in PBMCs, in words” value in the data set on PBMCs [8] (assay (g), compared with Reference Compound A) is “markedly less active than the Reference Compound A”.

For `COc1cc(Nc2ncc3cc(-c4cc(C(=O)Nc5cc(C(C)(C)C)cc(NS(C)(=O)=O)c5OC)ccc4C)ccc3n2)cc(C(=O)NCCN2CCOCC2)c1` [Example 5, N-(5-(tert-butyl)-2-methoxy-3-(methylsulfonamido)phenyl)-3-(2-((3-methoxy-5-((2-morpholinoethyl)carbamoyl)phenyl)amino)quinazolin-6-yl)-4-methylbenzamide], the “% Viability at 1 μg/mL” value in the data set with Jurkat cells was determined as 116.5%. For the same compound, the “% Viability at 5 μg/mL” value in the data set with Jurkat cells is given as 48.8%. In addition, in the data set with Jurkat cells, the “% Viability at 20 μg/mL” value was 44.6%. For the same compound, the half-inhibitory concentration (IC50) with PBMCs [1] was 30.4 nM; in the data set on PBMCs [3], 10.3 nM; against GSK3α, above 12600 nM; in the data set with PBMCs [4], 38.7 nM.

Regarding `COc1c(NC(=O)c2ccc(C)c(-c3ccc4nc(Nc5cc(OS(C)(=O)=O)cc(C(=O)NCCN6CCOCC6)c5)ncc4c3)c2)cc(C(C)(C)C)cc1NS(C)(=O)=O` [Example 10, 3-((6-(5-((5-(tert-Butyl)-2-methoxy-3-(methylsulfonamido)phenyl)carbamoyl)-2-methylphenyl)-quinazolin-2-yl)amino)-5-((2-morpholinoethyl)carbamoyl)phenyl methanesulfonate], the “% Viability at 1 μg/mL” value in the data set on Jurkat cells is 91.5%. Moreover, in the data set with Jurkat cells, the “% Viability at 5 μg/mL” value was found to be 82.5%. Further, in the data set with Jurkat cells, the “% Viability at 20 μg/mL” value amounted to 77.8%. In addition, the IC50 with PBMCs [1] was 13.1 nM; at Syk [2] it was above 1160 nM; in the data set on PBMCs [3] it was 3.5 nM; at c-Src it was 20 nM; against p38 MAPKα [7], 24 nM.

Take `COc1cc(Nc2ncc3cc(-c4cc(C(=O)Nc5cc(C(C)(C)C)cc(NS(C)(=O)=O)c5OC)ccc4C)ccc3n2)ccc1C(=O)N1CCS(=O)(=O)CC1` [Example 12, N-(5-(tert-Butyl)-2-methoxy-3-(methylsulfonamido)phenyl)-3-(2-((4-(1,1-dioxidothiomorpholine-4-carbonyl)-3-methoxyphenyl)amino)quinazolin-6-yl)-4-methylbenzamide]: in the data set on Jurkat cells, the “% Viability at 1 μg/mL” value was found to be 86.4%. Also, in the data set with Jurkat cells, the “% Viability at 5 μg/mL” value was found to be 79.3%. In addition, in the data set on Jurkat cells, the “% Viability at 20 μg/mL” value came out at 81.0%. The IC50 with PBMCs [1] came to 12.6 nM; at Syk [2], 190 nM; with PBMCs [3] it was 2.3 nM; against c-Src, 4 nM; at p38 MAPKα [7], 8 nM.

These data come from patent US20170209445A1, “KINASE INHIBITORS” (Respivert Limited, priority 2014, published 2017).
